“Also recorded” adds a separate entry of the source.
Columns and labels:
[1] = tested on: SN dopaminergic neurons; test: Cytosolic ATP/ADP ratio with PercevalHR in ex vivo brain slice; assay type: cell-based, mouse; conditions: wildtype dopaminergic neurons, inhibition of mitochondrial complex V
Description: FIG. 1. Loss of Ndufs2 function triggers mitochondrial and genomic adaptations in SN DA Neurons. a, Schematic of a coronal section of the midbrain highlighting the sampled region of SNc (orange). b, Meta-analysis of RNAseq data obtained by Cre-dependent RiboTag mRNA precipitation from P40 wildtype mice. […] Scale bar: 10 μm. e, Representative TMRM fluorescence time series after the application of carboxyatractyloside, the adenine nucleotide transporter inhibitor (iANT). f, Box plots of TMRM after blocking ANT with carboxyatractyloside and depolarizing mitochondria with FCCP (wildtype, P40 n=8 (1 per section), 6 mice; cNdufs2^−/−, P20 n=4 (1 per section), 3 mice; P40 n=5 (1 per section), 4 mice)). g, Cartoon representing the activity of the ETC and ANT following Ndufs2 deletion. h, Electron micrographs of SN DA neurons. The nucleus and the mitochondria are highlighted in green and red, respectively. […] The percentage of abnormal mitochondria was calculated as the ration between the area occupied by abnormal mitochondria over the total area occupied by mitochondria for each cell. […] Scale bar: 15 μm. p, Representative time-lapse measurements of Perceval-HR fluorescence ratio. […]

[2] = tested on: cNdufs2−/− mice; test: Y maze associative learning test; assay type: in vivo, mouse; conditions: systemic levodopa 6 mg/kg, P30
Description: (§1) FIG. 4. cNdufs2^−/− mice manifest a progressive, levodopa-responsive Parkinsonism. a, Schematic diagram of the experimental protocol for Y maze test. […] Local electrical stimulation (350 μA, 2 ms) was used to evoke release. […] By P30, cNdufs2^−/− mice took longer (N=10-13 per group). e, Open-field traces in wildtype and cNdufs2^−/− mice at P30 and P100. f, Number of pauses during open field test in wildtype and cNdufs2^−/− mice. […] N=12-27per group. h-m, Gait analysis procedure and measurement schematics. h, Pictures of wildtype and cNdufs2^−/− mice footprints with representations of measurements of RF (Right Fore). RH (Right Hind). […] Box plots represent stride length in right hind paw at P100 (N=7 per group). m, Boxplots indicate swing duration in right hind paw. […] Kruskal-Wallis test: (b), (d), (f) and (g). ***P<0.001. 2-way ANOVA followed by Tukey's post hoc test (c). *P<0.05; **P<0.01; 1-way ANOVA followed by Tukey's post hoc test (i), (j), (l) and (m). Data are presented as box-and-whisker plots depicting median, quartiles, and range (b), (c), (i), (j), (l) and (m) or median and range (shaded area); (d), (f) and (g).
Unlike conventional PD models in which DA is depleted rapidly throughout the basal ganglia, the staging of pathology in cNdufs2^−/− mice allowed an assessment of how regional deficits in DA release are coupled to behavior. […]

[3] = tested on: cNdufs2−/− mice; test: Adhesive removal test; assay type: in vivo, mouse; conditions: regardless of age
Description: as §1
By P40, open-field, exploratory behavior of cNdufs2″ mice began to be interrupted by brief pauses, although the total distance traveled in the testing period was normal (FIGS. 4e-g). […]

[4] = tested on: cNdufs2−/− mice; test: Open field test; assay type: in vivo, mouse
[5] = tested on: cNdufs2−/− mice; test: Rearing test; assay type: in vivo, mouse; conditions: levodopa 3 mg/kg, P20-P120
Description: (§2) FIG. 21. Behavioral phenotypes in cNdufs2^−/− mice. (a) Rearing test performance. b. […] Number of rearings begin to be impaired at P40. […] At P60, cNdufs2^−/− mice show difficulty transitioning between rearing and landing, spending much more time ‘stuck’ in an elevated posture. […] P60 and P100. […] P60 and P100. […] P60 and P100. […] P60 and P100. […] 1. […] P60 and P100. […] P60 and P100. […] P60 and P100. […] Kruskal-Wallis test: (b), and (c). *P<0.05; **P<0.01; 1-way ANOVA followed by Tukey's post hoc test: (h-o). Data are presented as median and range (shaded area).
By P40, open-field, exploratory behavior of cNdufs2″ mice began to be interrupted by brief pauses, although the total distance traveled in the testing period was normal (FIGS. 4e-g). Later, open-field behavior of cNdufs2^−/− mice became progressively more impaired and total distance traveled began to fall (FIG. 4g). […] Another common exploratory behavior of mice involves rearing. When placed in a tall glass cylinder, mice rear, land and rear again in a different part of the cylinder; in a 3-minute period, mice typically rear and land 15-20 times. At P30, rearing behavior of cNdufs2^−/− mice was normal, but by P60 cNdufs2^−/− mice appeared to have difficulty transitioning between rearing and landing, spending much more time ‘stuck’ in an elevated posture. […]

[6] = tested on: cNdufs2−/− mice; test: Gait analysis on treadmill; assay type: in vivo, mouse
Description: as §1, §2
However, by P100, cNdufs2^−/− mice had splayed hindlimbs, abnormal paw placement and alterations in stride when forced to ambulate on the treadmill (FIG. 4h-m, FIG. 21h-o). […] Because cNdufs2^−/− mice manifest a clear, levodopa-responsive Parkinsonism that is attributable to MCI dysfunction, they are referred to as MCI-Park mice.

[7] = levodopa 6 mg/kg, P30, P60 and P100

| SMILES | cytosolic ATP/ADP ratio (ATP levels) [1] | associative learning (memory) task, percentage of correct choices [2] | adhesive removal speed [3] | number of pauses during open field test ([4]; cNdufs2−/− mice, levodopa 3 mg/kg) | open-field performance (pauses, total distance traveled) ([4]; cNdufs2−/− mice, levodopa treatment) | open-field ambulation ([4]; control MCI-Park mice without AADC, low systemic levodopa dose 1.5 mg/kg, ~P100, 1.5 mg/kg) | number of rearings in a 3-minute period [5] | rearing time [5] | gait deficits (splayed hindlimbs, abnormal paw placement, alterations in stride) ([6]; P100) | swing duration in right hind paw ([6]; levodopa 6 mg/kg) | brake duration in right hind paw [6, 7] | propulsion time in right hind paw [6, 7] | step sequence in right hind paw [6, 7] | stride frequency in right hind paw [6, 7] | hind limb stance width ([6]; levodopa 6 mg/kg, P100) | paw area in right hind paw ([6]; levodopa 6 mg/kg, P100) | stance duration in right hind paw ([6]; levodopa 6 mg/kg, P100) |
| --- | --- | --- | --- | --- | --- | --- | --- | --- | --- | --- | --- | --- | --- | --- | --- | --- | --- |
| CC[C@H]1/C=C/C=C/C[C@@H](C)[C@H](O)[C@@](C)(O)C(=O)[C@@H](C)[C@H](O)[C@@H](C)C(=O)[C@@H](C)[C@H](O)[C@@H](C)/C=C/C(=O)O[C@@H]2[C@H](C)[C@H](CC1)O[C@]1(CC[C@H](C)[C@H](C[C@@H](C)O)O1)[C@H]2C [oligomycin] | caused a precipitous drop in ATP levels | – | – | – | – | – | – | – | – | – | – | – | – | – | – | – | – |
| N[C@@H](Cc1ccc(O)c(O)c1)C(=O)O [levodopa] | – | restored | improved adhesive removal speed regardless of age | rescued this deficit | improved performance in this task | had no discernible effect | did not rescue this deficit | did not lessen this deficit; also recorded: did not rescue this deficit | ameliorated some, but not all of these deficits | not rescued | did not rescue this phenotype | did not rescue this phenotype | did not rescue this phenotype | did not rescue this phenotype | rescued this phenotype | rescued this phenotype at P100 | rescued this phenotype at P100 |

Reference: US20240316164A1, “ENHANCED EXPRESSION OF AN AROMATIC AMINO ACID DECARBOXYLASE (AADC) IN THE SUBSTANTIA NIGRA FOR THE TREATMENT OF PARKINSON'S DISEASE” (Northwestern University, priority 2021, published 2024)
